Source: ChEMBL document CHEMBL1201862, “PubChem BioAssay data set” (2004)
Calls of active or inactive are those of the source. Rule as the data show it, for most assays here: actives have a measured EC50 and inactives only a lower limit.

Experiments:
[1] = tested on: Streptococcus sp. 'group A'; assay: Streptococcus pyogenes SK(-)GAS viability under kanamycin – luminescence, BacTiterGlo, confirmation, counter-screen for streptokinase expression inhibitor project, dose response (AID 1900); format: functional, organism-based
Streptokinase A = target: T1, Streptokinase A (Streptococcus pyogenes serotype M1, UniProt P10520); assay: viability-normalized secreted streptokinase activity reduction – plasminogen activation absorbance, OD405, dose response (AID 1914); format: functional, Streptococcus pyogenes M1 GAS;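 also: secreted streptokinase activity via plasminogen activation per viability signal from cell pellet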
T1 sequence (P10520 whole entry): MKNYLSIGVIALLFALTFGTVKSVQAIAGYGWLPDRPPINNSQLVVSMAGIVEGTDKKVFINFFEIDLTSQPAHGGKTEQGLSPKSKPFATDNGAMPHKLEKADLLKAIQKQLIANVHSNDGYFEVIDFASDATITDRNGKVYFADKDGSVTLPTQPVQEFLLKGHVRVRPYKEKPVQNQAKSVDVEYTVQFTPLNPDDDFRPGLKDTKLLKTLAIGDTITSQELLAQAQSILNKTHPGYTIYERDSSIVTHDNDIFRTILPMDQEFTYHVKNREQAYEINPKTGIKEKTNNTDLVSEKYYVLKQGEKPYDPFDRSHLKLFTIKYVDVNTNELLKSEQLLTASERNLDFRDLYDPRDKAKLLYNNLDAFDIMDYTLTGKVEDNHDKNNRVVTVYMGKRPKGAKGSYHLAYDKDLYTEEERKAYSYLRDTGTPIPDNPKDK

Streptococcus = assay: GAS UMAA2166 growth inhibition – luminescence, BacTiterGlo, counter-screen for streptokinase expression inhibitor project, dose response (AID 1915); format: functional, organism-based;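 also: potency for reduction of bacterial viability or growth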
[2] = NIH3T3 cell viability loss – ATP luminescence, mouse fibroblasts, counter-screen, dose response (AID 2010); format: functional, cell-based;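 also: cells exposed to compound for about 90 hours before reading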
[3] = Trypanosoma cruzi growth suppression in host cells – NIH3T3 host cells, beta-gal luminescence, confirmation (AID 2044); format: functional, cell-based;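 also: intracellular parasites grown in NIH/3T3 mouse fibroblasts as host cells; luminescent beta-galactosidase reporter signal from transgenic T. cruzi replicating inside host cells; inhibitors lower the luminescence signal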
[4] = target: T2, Heat shock factor protein 1 (Mus musculus, UniProt P38532); assay: decrease of HSF1-responsive luciferase luminescence – cell-based, NIH3T3, dose retest, confirmation (AID 2382); format: functional;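 also: NIH3T3 fibroblasts with HSF1-driven luciferase reporter stressed by proteasome inhibitor MG132; luminescence from HSF1-driven luciferase expression after 8 hours of MG132 stress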
T2 sequence (P38532 whole entry): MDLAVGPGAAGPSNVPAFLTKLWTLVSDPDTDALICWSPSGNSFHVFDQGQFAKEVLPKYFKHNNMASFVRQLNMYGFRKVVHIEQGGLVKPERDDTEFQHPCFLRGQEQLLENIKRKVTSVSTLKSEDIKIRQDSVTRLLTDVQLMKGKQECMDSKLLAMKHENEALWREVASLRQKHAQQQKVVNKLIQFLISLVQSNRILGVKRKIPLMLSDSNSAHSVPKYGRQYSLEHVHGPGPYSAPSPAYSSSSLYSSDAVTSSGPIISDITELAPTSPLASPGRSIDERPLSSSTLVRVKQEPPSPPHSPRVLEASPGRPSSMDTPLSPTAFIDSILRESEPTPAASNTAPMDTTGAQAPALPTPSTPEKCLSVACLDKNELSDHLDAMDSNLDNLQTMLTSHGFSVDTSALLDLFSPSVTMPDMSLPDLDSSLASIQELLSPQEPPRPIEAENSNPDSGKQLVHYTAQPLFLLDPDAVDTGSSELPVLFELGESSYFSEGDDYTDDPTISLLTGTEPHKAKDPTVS

[5] = target: T3, Rac GTPase-activating protein 1 (Homo sapiens, UniProt Q9H0H5); assay: blockers of MgcRacGAP-driven Rac1 GTP hydrolysis – biochemical, ADP Hunter fluorescence, primary and confirmatory, confirmation (AID 624330); format: functional
T3 sequence (Q9H0H5 whole entry): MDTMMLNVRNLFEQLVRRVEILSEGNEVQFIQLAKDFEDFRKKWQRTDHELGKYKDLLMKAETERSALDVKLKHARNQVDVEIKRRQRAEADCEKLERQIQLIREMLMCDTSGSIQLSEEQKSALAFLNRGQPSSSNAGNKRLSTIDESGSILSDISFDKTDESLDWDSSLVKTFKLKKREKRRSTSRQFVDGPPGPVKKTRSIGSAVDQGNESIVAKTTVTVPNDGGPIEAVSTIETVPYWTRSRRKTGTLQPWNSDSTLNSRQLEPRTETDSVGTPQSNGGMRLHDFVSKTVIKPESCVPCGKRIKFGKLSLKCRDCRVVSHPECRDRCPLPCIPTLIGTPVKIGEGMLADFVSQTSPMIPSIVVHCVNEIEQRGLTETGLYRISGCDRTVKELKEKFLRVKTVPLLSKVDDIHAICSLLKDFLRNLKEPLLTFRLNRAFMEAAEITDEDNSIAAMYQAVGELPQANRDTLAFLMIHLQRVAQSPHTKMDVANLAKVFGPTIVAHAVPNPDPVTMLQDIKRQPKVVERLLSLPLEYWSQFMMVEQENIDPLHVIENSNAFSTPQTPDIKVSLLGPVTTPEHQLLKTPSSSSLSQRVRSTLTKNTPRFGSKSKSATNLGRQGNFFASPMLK

O=C(/C=C/c1ccccc1)NC(=S)NNC(=O)c1ccco1
EC50 [1]: 3.86 µM (active)
EC50 (Streptokinase A): > 150 µM (not active)
EC50 (Streptococcus): 11.2 µM (active)

CC(C)(C)c1ccc(OCC(=O)Nc2ccc(C(=O)Nc3ccccc3C(=O)O)cc2)cc1
EC50 [1]: 4.27 µM (active)
EC50 (Streptococcus): 22.9 µM (active)

CCOc1ccc(C2Nc3ccc4ccccc4c3-c3c2c(=O)oc2ccccc32)cc1 (configuration not stated)
EC50 [2]: > 60 µM (not active)
EC50 [3]: 1.26 µM (active)

O=C(c1cccc([N+](=O)[O-])c1)N1CCc2ccccc21
EC50 [4]: > 195 µM (not active)

CCCOc1ccc(Cc2c(Cl)nc(SC)nc2N(C)C)cc1
EC50 [1]: 20.8 µM (active)
EC50 (Streptokinase A): 24.5 µM (active)
EC50 (Streptococcus): > 150 µM (not active)

Cc1cccc(C)c1NC(=O)N1C(C(=O)O)CSC1C(=O)O (configuration not stated)
EC50 [4]: > 195 µM (not active)

COc1cccc(CCNCc2cccc(C(F)(F)F)c2)c1
EC50 [2]: > 30 µM (not active)
EC50 [3]: 0.97 µM (active)

CCOC(=O)C1=C(N)OC2=C(C(=O)CC(C)(C)C2)C1c1ccccc1OCC#N (configuration not stated)
EC50 [4]: > 195 µM (not active)

CC12CCC(C(=O)N3CCN(C(c4ccccc4)c4ccccc4)CC3)(OC1=O)C2(C)C (configuration not stated)
EC50 [2]: > 60 µM (inconclusive)
EC50 [3]: 1.56 µM (active)

Cc1onc(-c2c(Cl)cccc2Cl)c1C(=O)NC1C(=O)N2C1SC(C)(C)C2C(=O)O (configuration not stated)
EC50 [1]: < 0.06 µM (active)
EC50 (Streptococcus): < 0.06 µM (active)

CC1(C)S[C@@H]2[C@H](NC(=O)COc3ccccc3)C(=O)N2C1C(=O)OCC1CCCCC1 (some centres not stated)
EC50 [1]: 9.95 µM (active)
EC50 (Streptokinase A): > 150 µM (not active)
EC50 (Streptococcus): 14 µM (active)

NC(=O)COC(=O)c1cc(O)nc2ccccc12
EC50 [4]: > 195 µM (not active)

CCN(CC)c1ccc(NC(=O)c2ccc3c(c2)OCO3)cc1
IC50 [5]: 52.9 µM (active)

CCN(CC)CCCNC(=O)C1CCC(CNS(=O)(=O)c2ccc(Cl)cc2)CC1 (configuration not stated)
EC50 [4]: > 195 µM (not active)

CSc1ccccc1NC(=O)CNCCCN1CCOCC1
IC50 [5]: 81.9 µM (active)

COc1cc(NC(=O)c2ccco2)c(OC)cc1NC(=O)Nc1cccc(Cl)c1
EC50 [2]: > 60 µM (not active)
EC50 [3]: 1.79 µM (active)

CC(=O)N(C)C1=C(O)C(=O)c2ccccc2C1=O
EC50 [4]: > 195 µM (not active)

c1cc2c(cc1CN1CCN(C3CCCCCC3)CC1)OCO2
IC50 [5]: 91.9 µM (active)

CC(=O)Nc1cc(C(=O)N(C)Cc2ccco2)ccc1Sc1ccc(C)cc1
EC50 [4]: > 195 µM (not active)

Cc1nn(Cc2ccccc2Cl)c2sc(C(=O)Nc3ccccc3N3CCOCC3)cc12
EC50 [1]: 45.4 µM (active)
EC50 (Streptokinase A): > 150 µM (not active)
EC50 (Streptococcus): > 150 µM (not active)

CSCc1nnc2n1-c1ccc(Cl)cc1C(c1ccccc1)=NC2
EC50 [4]: > 195 µM (not active)

CCn1c(COc2ccc(C)cc2)nnc1SCC(=O)Nc1ccc2c(c1)OCCO2
EC50 [4]: > 195 µM (not active)

CCCn1c(NC(=O)c2ccccc2Br)nc2ccccc21
EC50 [1]: 10.2 µM (active)
EC50 (Streptokinase A): > 150 µM (not active)
EC50 (Streptococcus): 30.5 µM (active)

COc1ccc(C2CC(c3cccs3)=NN2C(=O)c2ccc(Br)o2)cc1 (configuration not stated)
EC50 [1]: 6.42 µM (active)
EC50 (Streptokinase A): > 150 µM (not active)
EC50 (Streptococcus): 27.4 µM (active)

COc1ccc(N2CCN(C(=O)CCCN3C(=O)c4cccc5cccc(c45)C3=O)CC2)cc1
EC50 [2]: > 60 µM (inconclusive)
EC50 [3]: 2.45 µM (active)

O=[N+]([O-])c1ccc(OCCN2CCNCC2)cc1
EC50 [2]: > 60 µM (not active)
EC50 [3]: 0.132 µM (active)

Cc1ccccc1OCCC(=O)Nc1ccc(S(=O)(=O)N(C)C2CCN(C)CC2)cc1
EC50 [2]: > 30 µM (not active)
EC50 [3]: 0.324 µM (active)

CCc1cccc(CC)c1N=C(S)N1CCn2cccc2C1c1cccnc1 (configuration not stated)
EC50 [4]: > 195 µM (not active)

COc1ccccc1C(O)(C(=O)N(NC(C)=O)c1ccccc1)c1ccccc1OC
EC50 [4]: > 195 µM (not active)

CC1CN(CCOCCOc2ccccc2-c2ccccc2)CC(C)O1 (configuration not stated)
IC50 [5]: 87.5 µM (active)

COc1cc2c(cc1NC(=S)Nc1cccc3ccccc13)oc1ccccc12
IC50 [5]: 70.2 µM (active)

CCCCCCCCN1[C@@H](CC(=O)OCC)c2ccc(C(F)(F)F)cc2S1(=O)=O
EC50 [2]: 37.8 µM (active)
EC50 [3]: 0.87 µM (active)

O=C1[C@H]2[C@@H](c3ccc(Cl)cc3)N3C(=O)N(c4cccc(F)c4)C(=O)[C@@]3(Cc3ccc(Cl)cc3)[C@H]2C(=O)N1C1CCCCC1
EC50 [2]: > 30 µM (not active)
EC50 [3]: 1.21 µM (active)

CCC(N=C(S)NCc1ccccc1)C(=O)O (configuration not stated)
EC50 [4]: > 195 µM (not active)

O=C(c1ccc(Cl)cc1)c1cnc(Nc2ccccc2Cl)s1
EC50 [1]: 18.9 µM (active)
EC50 (Streptokinase A): > 150 µM (not active)
EC50 (Streptococcus): 30.5 µM (active)

O=C(CN1CCN(Cc2ccccc2)CC1)Nc1ccc(F)c(F)c1
IC50 [5]: 73.9 µM (active)

NNc1nc(Nc2ccccc2)nc(Nc2ccccc2)n1
EC50 [1]: 6.74 µM (active)
EC50 (Streptokinase A): 23.5 µM (active)
EC50 (Streptococcus): > 150 µM (not active)

COc1ccc(CCNC(=O)C(=O)Nc2ccc3nc4n(c(=O)c3c2)CCCCC4)cc1OC
EC50 [1]: 11.3 µM (active)
EC50 (Streptokinase A): > 150 µM (not active)
EC50 (Streptococcus): > 150 µM (not active)

CCN1CCN(CC(=O)Nc2nc3ccc(OC)cc3s2)CC1
IC50 [5]: 74.3 µM (active)

Cc1cccc(NC(S)=NC(NC(=O)OCc2ccccc2)C(Cl)(Cl)Cl)c1 (configuration not stated)
EC50 [2]: > 60 µM (not active)
EC50 [3]: 3.39 µM (active)

O=S(=O)(c1ccc2ccccc2c1)N1CCN(C2CCN(Cc3ccccc3)CC2)CC1
IC50 [5]: 108 µM (active)

CN1CCN(c2ccc([N+](=O)[O-])c(N3CCCCC3)c2)CC1
EC50 [2]: > 30 µM (not active)
EC50 [3]: 0.661 µM (active)

CC/C(=N\c1ccc(N)cc1)C1=C(O)C(C(=O)OC)C(C)(C)CC1=O (configuration not stated)
IC50 [5]: 6.8 µM (active)

COc1ccc(NC(=O)CNCc2cccs2)c(OC)c1
IC50 [5]: 284 µM (active)

CCCCNC(=O)C(c1ccc(OCC(=O)OC)c(C(=O)OC)c1)N(CCc1c[nH]c2ccccc12)C(=O)CCCCCN1C(=O)NC(c2ccc(-c3ccccc3)cc2)C(C(=O)OCc2ccccc2)=C1C (configuration not stated)
EC50 [4]: > 195 µM (not active)

C=CCc1c(C)nc(-c2ccccc2)nc1N/N=C/c1ccncc1
EC50 [2]: 6.59 µM (active)
EC50 [3]: 0.941 µM (active)

CN1CCN(/C=N/C2=NN(c3cccc(C(F)(F)F)c3)CC2)CC1
IC50 [5]: 33.9 µM (active)

Cc1ccc(S(=O)(=O)N2CCN(CC(=O)N/N=C\c3ccncc3)CC2)cc1
EC50 [4]: > 195 µM (not active)

CC/C(=N\NS(=O)(=O)c1ccc(C)cc1)c1ccco1
EC50 [4]: > 195 µM (not active)

CCCOc1ccc(CC(=O)N/N=C\c2ccc(F)cc2)cc1
EC50 [4]: > 195 µM (not active)

CC(O/N=C\c1ccccc1O)C(=O)Nc1ccccc1C(=O)N1CCOCC1 (configuration not stated)
EC50 [4]: > 195 µM (not active)

O=C1c2ccccc2C2=Nc3ccccc3SC(c3cccc(F)c3)C12 (configuration not stated)
EC50 [2]: > 60 µM (not active)
EC50 [3]: 1.27 µM (active)

CCN1CCN(C(=O)N[C@@H](C(=O)N[C@@H]2C(=O)N3[C@@H]2SC(C)(C)[C@@H]3C(=O)O)c2ccccc2)C(=O)C1=O [PIPERACILLIN SODIUM]
EC50 [1]: 0.361 µM (active)
EC50 (Streptococcus): 0.746 µM (active)
